Measurements: patent US10323027B2, “2,3-dihydro-4H-1,3-benzoxazin-4-one derivatives as modulators of cholinergic muscarinic M1 receptor” (Takeda Pharmaceutical Company Limited, priority 2015, dated 2019)
pEC50: −log10 of the molar value. Where a name gives a salt, the structure may show the parent alone.

Target: T1, human M1 receptor (hCHRM1) (Homo sapiens, UniProt P11229)
T1 construct: expressed in transfected cells
T1 sequence (P11229 1-460): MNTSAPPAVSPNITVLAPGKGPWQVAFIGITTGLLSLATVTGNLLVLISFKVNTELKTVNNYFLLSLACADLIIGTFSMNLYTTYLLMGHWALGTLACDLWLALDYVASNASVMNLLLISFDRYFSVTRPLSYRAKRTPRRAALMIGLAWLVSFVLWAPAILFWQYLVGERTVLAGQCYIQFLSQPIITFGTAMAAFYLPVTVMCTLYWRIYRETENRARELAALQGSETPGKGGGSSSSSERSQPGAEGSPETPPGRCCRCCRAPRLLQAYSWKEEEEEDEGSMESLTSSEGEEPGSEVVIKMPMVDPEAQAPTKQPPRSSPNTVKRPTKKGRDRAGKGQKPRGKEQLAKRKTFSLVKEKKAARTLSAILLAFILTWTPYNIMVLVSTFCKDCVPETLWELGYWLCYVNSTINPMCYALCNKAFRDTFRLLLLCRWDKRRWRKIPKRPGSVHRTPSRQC
Experiment: Measurement of M1 receptor positive allosteric modulator (M1PAM) activity, Ca2+ fluorescence by FLIPRtetra (Experimental Example 1)
Format: cell-based
Details: for activity (%) at 10 μM: 10 μM test compound, 100% = acetylcholine 1 μM, 0% = DMSO; for pEC50: inflection point of concentration-dependent curve, in presence of acetylcholine at EC20 (0.8-1.0 nM), CHO-K1 cells expressing hCHRM1, read-out: IP value
Description: Measurement of M1 Receptor Positive Allosteric Modulator (M1PAM) Activity
The activity of a test compound in the presence of acetylcholine at EC20 concentration (final concentration 0.8-1.0 nM), which affords an action corresponding to about 20% of the maximum activity, was measured as PAM activity. The method is as follows. CHO-K1 cells stably expressing a human M1 receptor (hCHRM1) were plated on a 384-well black clear bottom plate (BD Falcon) at 5,000 cells/well, and cultured in an incubator at 37° C., 5% CO2 for 1 day. The medium in the cell plate was removed, and a dye solution (prepared by adding Recording medium (DOJINDO LABORATORIES) to a final concentration of 1×concentration, Fluo-4 AM (DOJINDO LABORATORIES) to a final concentration of 2.5 μg/mL, Pluronic F127 (DOJINDO LABORATORIES) to a final concentration of 0.08%, and probenecid (DOJINDO LABORATORIES) to a final concentration of 1.25 mM to assay buffer (HBSS (Invitrogen), 20 mM HEPES (Invitrogen), 0.1% BSA (Wako Pure Chemical Industries, Ltd.))) was added at 30 μL/well. The cells were left standing in the incubator at 37° C., 5% CO2 for 30 min, and further left standing at room temperature for 30 min. A test compound prepared by diluting with assay buffer containing 3.2-4.0 nM acetylcholine was added at 10 μL/well, and the fluorescence was measured by FLIPRtetra (Molecular Devices) for 1 min every 1 second. With the definition that the amount of change in the fluorescence on addition of acetylcholine (final concentration 1 μM) is 100% and that on addition of DMSO instead of a test compound is 0%, the activity (%) of the test compound was calculated, and the inflection point in the concentration-dependent curve of the test compound was calculated as IP values.

SMILES | activity (%) at 10 μM | pEC50 | activity (%) at 10 μM (monohydrochloride)
O=C1c2cc(CN3CCCC(F)(F)C3)c3ccccc3c2OCN1[C@H]1CCC[C@@H]1O [Example 72, 6-((3,3-difluoropiperidin-yl)methyl)-3-((1S,2S)-2-hydroxycyclopentyl)-2,3-dihydro-4H-naphtho[2,1-e][1,3]oxazin-4-one] | 100% | 7.24 | –
Cc1c(Cc2ccc(-c3ccn(C)n3)nc2)cc2c(c1F)OCN([C@H]1CCC[C@@H]1O)C2=O [Example 22, 8-fluoro-3-((1S,2S)-2-hydroxycyclopentyl)-7-methyl-6-((6-(1-methyl-1H-pyrazol-3-yl)pyridin-3-yl)methyl)-2,3-dihydro-4H-1,3-benzoxazin-4-one] | 105% | 9.16 | –
Cc1c(Cc2ccc(-c3cnn(C)c3)nc2)cc2c(c1Cl)OCN(CC1CCCO1)C2=O (stereo not shown) [Example 45, 8-chloro-7-methyl-6-((6-(1-methyl-1H-pyrazol-4-yl)pyridin-3-yl)methyl)-3-(tetrahydrofuran-2-ylmethyl)-2,3-dihydro-4H-1,3-benzoxazin-4-one] | 92% | 8.32 | –
O=C1NCOc2c1cc(Cc1ccc(Cl)nc1)c1ccccc21 [Example 80, 6-((6-chloropyridin-3-yl)methyl)-2,3-dihydro-4H-naphtho[2,1-e][1,3]oxazin-4-one] | 97% | 7.09 | –
COc1ccc(Cc2cc3c(c(C)c2C)OCN([C@H]2COCC[C@@H]2O)C3=O)cn1 [Example 29, 3-((3S,4S)-4-hydroxytetrahydro-2H-pyran-3-yl)-6-((6-methoxypyridin-3-yl)methyl)-7,8-dimethyl-2,3-dihydro-4H-1,3-benzoxazin-4-one] | 106% | 7.85 | –
Cc1c(Cc2ccc(-n3cccn3)cc2)cc2c(c1F)OCN(CC1CCCO1)C2=O (stereo not shown) [Example 78, 8-fluoro-7-methyl-6-(4-(1H-pyrazol-1-yl)benzyl)-3-(tetrahydrofuran-2-ylmethyl)-2,3-dihydro-4H-1,3-benzoxazin-4-one] | 104% | 7.12 | –
O=C1c2cc(CN3CCOCC3)c3ccccc3c2OCN1[C@H]1CCC[C@@H]1O [Example 77, 3-((1S,2S)-2-hydroxycyclopentyl)-6-(morpholin-4-ylmethyl)-2,3-dihydro-4H-naphtho[2,1-e][1,3]oxazin-4-one] | 104% | 7.20 | –
O=C1c2cc(CN3CC[S+]([O-])CC3)c3ccccc3c2OCN1[C@H]1CCC[C@@H]1O [Example 60, 3-((1S,2S)-2-hydroxycyclopentyl)-6-((1-oxidothiomorpholin-4-yl)methyl)-2,3-dihydro-4H-naphtho[2,1-e][1,3]oxazin-4-one] | 105% | 7.66 | –
Cc1ccc(Cc2cc3c(c4ccccc24)OCN([C@H]2CCC[C@@H]2O)C3=O)cn1 [Example 40, 3-((1S,2S)-2-hydroxycyclopentyl)-6-((6-methylpyridin-3-yl)methyl)-2,3-dihydro-4H-naphtho[2,1-e][1,3]oxazin-4-one] | 98% | 8.80 | –
Cc1ccc(Cc2cc3c(c(Cl)c2C)OCN([C@H]2CCCC[C@@H]2O)C3=O)cn1 [Example 2, 8-chloro-3-((1S,2S)-2-hydroxycyclohexyl)-7-methyl-6-((6-methylpyridin-3-yl)methyl)-2,3-dihydro-4H-1,3-benzoxazin-4-one] | 106% | 8.60 | –
COc1ccc(Cc2cc3c(cc2C)OCN([C@H]2CCC[C@@H]2O)C3=O)cc1 [Example 73, 3-((1S,2S)-2-hydroxycyclopentyl)-6-(4-methoxybenzyl)-7-methyl-2,3-dihydro-4H-1,3-benzoxazin-4-one] | 97% | 7.23 | –
Cc1cc2c(cc1Cc1ccc(-n3cccn3)nc1)C(=O)N([C@H]1CCC[C@@H]1O)CO2 [Example 14, 3-((1S,2S)-2-hydroxycyclopentyl)-7-methyl-6-((6-(1H-pyrazol-1-yl)pyridin-3-yl)methyl)-2,3-dihydro-4H-1,3-benzoxazin-4-one] | 106% | 7.82 | –
Cc1c(Cc2ccc(Cl)nc2)cc2c(c1F)OCN([C@H]1CCC[C@@H]1O)C2=O [Example 16, 6-((6-chloropyridin-3-yl)methyl)-8-fluoro-3-((1S,2S)-2-hydroxycyclopentyl)-7-methyl-2,3-dihydro-4H-1,3-benzoxazin-4-one] | 102% | 7.70 | –
O=C1c2cc(Cc3ccc(Cl)nc3)c3ccccc3c2OCN1[C@H]1COCC[C@@H]1O [Example 125, 1,5-anhydro-2-(6-((6-chloropyridin-3-yl)methyl)-4-oxo-2H-naphtho[2,1-e][1,3]oxazin-3(4H)-yl)-2,4-dideoxy-L-threo-pentitol] | 89% | 8.42 | –
O=C1c2cc(Cc3ccc(Cl)nc3)c3ccccc3c2OCN1[C@H]1CCC[C@@H]1O [Example 43, 6-((6-chloropyridin-3-yl)methyl)-3-((1S,2S)-2-hydroxycyclopentyl)-2,3-dihydro-4H-naphtho[2,1-e][1,3]oxazin-4-one] | 93% | 8.62 | –
Cc1ccc(Cc2cc3c(c(Cl)c2C)OCN([C@H]2CCC[C@@H]2O)C3=O)cn1 [Example 25, 8-chloro-3-((1S,2S)-2-hydroxycyclopentyl)-7-methyl-6-((6-methylpyridin-3-yl)methyl)-2,3-dihydro-4H-1,3-benzoxazin-4-one] | 101% | 8.38 | –
Cc1ccc(Cc2cc3c(c(C)c2C)OCN([C@H]2COCC[C@@H]2O)C3=O)cn1 (single isomer, unassigned) [Example 7, 1,5-anhydro-2,4-dideoxy-2-(7,8-dimethyl-6-((6-methylpyridin-3-yl)methyl)-4-oxo-2H-1,3-benzoxazin-3(4H)-yl)-threo-pentitol monohydrochloride (optical isomer)] | 108% | 8.10 | –
O=C1c2cc(CN3CCC(F)(F)CC3)c3ccccc3c2OCN1[C@H]1CCC[C@@H]1O [Example 21, 6-((4,4-difluoropiperidin-1-yl)methyl)-3-((1S,2S)-2-hydroxycyclopentyl)-2,3-dihydro-4H-naphtho[2,1-e][1,3]oxazin-4-one] | 95% | 7.80 | –
COc1c(Cc2ccc(-n3cccn3)nc2)cc2c(c1F)OCN([C@H]1CCC[C@@H]1O)C2=O (single isomer, unassigned) [Example 55, 8-fluoro-3-(trans-2-hydroxycyclopentyl)-7-methoxy-6-((6-(1H-pyrazol-1-yl)pyridin-3-yl)methyl)-2,3-dihydro-4H-1,3-benzoxazin-4-one (optical isomer)] | 98% | 7.85 | –
Cc1ccc(Cc2cc3c(c(C)c2C)OCN([C@H]2CCC[C@@H]2O)C3=O)cn1 [Example 26, 3-((1S,2S)-2-hydroxycyclopentyl)-7,8-dimethyl-6-((6-methylpyridin-3-yl)methyl)-2,3-dihydro-4H-1,3-benzoxazin-4-one monohydrochloride] | – | 8.27 | 119%
Cc1cc2c(cc1CN1CCC(F)(F)CC1)C(=O)N([C@H]1CCCC[C@@H]1O)CO2 (relative stereo) [Example 85, 6-((4,4-difluoropiperidin-1-yl)methyl)-3-(trans-2-hydroxycyclohexyl)-7-methyl-2,3-dihydro-4H-1,3-benzoxazin-4-one] | 104% | 6.96 | –
CCc1ccc(Cc2cc3c(c4ccccc24)OCN([C@H]2COCC[C@@H]2O)C3=O)cn1 [Example 38, 1,5-anhydro-2,4-dideoxy-2-(6-((6-ethylpyridin-3-yl)methyl)-4-oxo-2H-naphtho[2,1-e][1,3]oxazin-3(4H)-yl)-L-threo-pentitol] | 99% | 8.82 | –
Cc1c(Cc2ccc(-n3cccn3)cc2)cc2c(c1C)OCN([C@H]1COCC[C@@H]1O)C2=O [Example 23, 3-[(3S,4S)-4-hydroxytetrahydro-2H-pyran-3-yl]-7,8-dimethyl-6-[4-(1H-pyrazol-1-yl)benzyl]-2,3-dihydro-4H-1,3-benzoxazin-4-one] | 114% | 8.70 | –
